Source: patent US20230117034A1, “PYRAZOLOTRIAZINES” (Bayer Aktiengesellschaft, priority 2019, published 2023)

Legend:
CDK12/CycK = CDK12/CycK (Homo sapiens, UniProt Q9NYV4); assay: CDK12/CycK high ATP kinase assay (TR-FRET, 2 mM ATP); format: biochemical; details: 2 mM ATP (high ATP); median; read-out: CDK12/CyclinK, 2 mM ATP (high ATP), IC50-[mol/l] (median)
Method in brief: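 Read-out is TR-FRET (Eu-anti-rabbit IgG, anti-phospho-c-Myc Ser62 antibody, streptavidin-XL665) after EDTA stop. Reaction ran 60 min at 22 °C using 1 µM biotin-peptide and high ATP (2 mM) with roughly 0.75 nM recombinant CDK12/CycK, after 15 min compound pre-binding; normalised emission ratios yield IC50.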

[1] = target: T1, CDK12 (nuclear staining in CAL-120 cells) (Homo sapiens, UniProt Q9NYV4); assay: CDK12 nuclear protein level: immunofluorescence/high content analysis (CAL-120); format: cell-based; details: for DC50: CAL-120 cells, 24 h, immunofluorescence, 50% reduction of nuclear CDK12 staining intensity, median, read-out: CDK12 degradation IF, DC50- [mol/l] (median); for (IC50 CDK12 high ATP) to (Degradation DC50 CDK12) ratio: ratio of IC50 CDK12 high ATP kinase assay to DC50 CDK12 degradation (IF, CAL-120)
T1 construct: endogenous in cells; host or cells: CAL-120 human breast cancer cells (DSMZ ACC 459)
T1 sequence (Q9NYV4 whole entry): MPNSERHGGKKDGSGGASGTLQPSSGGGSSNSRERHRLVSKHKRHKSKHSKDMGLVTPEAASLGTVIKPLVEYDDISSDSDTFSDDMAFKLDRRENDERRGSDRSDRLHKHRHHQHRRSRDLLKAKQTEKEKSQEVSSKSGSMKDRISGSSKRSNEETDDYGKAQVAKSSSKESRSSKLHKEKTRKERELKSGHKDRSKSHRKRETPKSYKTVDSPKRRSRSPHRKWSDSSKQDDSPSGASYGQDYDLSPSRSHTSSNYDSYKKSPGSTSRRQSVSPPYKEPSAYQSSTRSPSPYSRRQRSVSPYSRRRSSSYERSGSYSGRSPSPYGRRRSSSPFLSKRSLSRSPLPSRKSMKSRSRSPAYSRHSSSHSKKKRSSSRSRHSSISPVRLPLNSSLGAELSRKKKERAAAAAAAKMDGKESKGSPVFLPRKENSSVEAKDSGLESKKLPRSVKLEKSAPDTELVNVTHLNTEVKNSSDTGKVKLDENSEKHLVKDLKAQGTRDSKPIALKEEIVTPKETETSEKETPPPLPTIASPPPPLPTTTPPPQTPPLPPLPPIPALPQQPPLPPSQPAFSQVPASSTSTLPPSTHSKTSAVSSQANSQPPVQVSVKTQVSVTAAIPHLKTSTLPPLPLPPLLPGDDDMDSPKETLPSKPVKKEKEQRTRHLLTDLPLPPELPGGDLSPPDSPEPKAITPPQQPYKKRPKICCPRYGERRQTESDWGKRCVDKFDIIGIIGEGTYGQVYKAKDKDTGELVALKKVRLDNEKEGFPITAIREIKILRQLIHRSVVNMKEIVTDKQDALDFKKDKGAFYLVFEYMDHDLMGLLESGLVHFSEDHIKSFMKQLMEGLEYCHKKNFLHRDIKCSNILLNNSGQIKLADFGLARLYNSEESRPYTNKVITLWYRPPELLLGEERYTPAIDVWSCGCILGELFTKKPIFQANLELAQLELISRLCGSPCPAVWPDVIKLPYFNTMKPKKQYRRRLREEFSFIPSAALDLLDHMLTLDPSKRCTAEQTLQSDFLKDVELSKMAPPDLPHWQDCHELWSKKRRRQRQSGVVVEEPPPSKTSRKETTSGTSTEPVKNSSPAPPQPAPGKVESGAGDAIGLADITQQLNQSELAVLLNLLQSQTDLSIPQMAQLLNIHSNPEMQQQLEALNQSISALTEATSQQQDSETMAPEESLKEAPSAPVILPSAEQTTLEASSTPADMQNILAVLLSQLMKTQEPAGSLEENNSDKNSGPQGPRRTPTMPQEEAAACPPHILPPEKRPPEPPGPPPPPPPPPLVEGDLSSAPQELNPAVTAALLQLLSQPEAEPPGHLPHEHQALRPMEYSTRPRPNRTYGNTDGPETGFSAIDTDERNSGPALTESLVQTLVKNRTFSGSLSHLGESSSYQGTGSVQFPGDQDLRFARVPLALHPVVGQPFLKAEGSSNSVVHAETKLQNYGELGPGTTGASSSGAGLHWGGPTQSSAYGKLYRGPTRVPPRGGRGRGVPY
T1 sequence (O75909 whole entry partner): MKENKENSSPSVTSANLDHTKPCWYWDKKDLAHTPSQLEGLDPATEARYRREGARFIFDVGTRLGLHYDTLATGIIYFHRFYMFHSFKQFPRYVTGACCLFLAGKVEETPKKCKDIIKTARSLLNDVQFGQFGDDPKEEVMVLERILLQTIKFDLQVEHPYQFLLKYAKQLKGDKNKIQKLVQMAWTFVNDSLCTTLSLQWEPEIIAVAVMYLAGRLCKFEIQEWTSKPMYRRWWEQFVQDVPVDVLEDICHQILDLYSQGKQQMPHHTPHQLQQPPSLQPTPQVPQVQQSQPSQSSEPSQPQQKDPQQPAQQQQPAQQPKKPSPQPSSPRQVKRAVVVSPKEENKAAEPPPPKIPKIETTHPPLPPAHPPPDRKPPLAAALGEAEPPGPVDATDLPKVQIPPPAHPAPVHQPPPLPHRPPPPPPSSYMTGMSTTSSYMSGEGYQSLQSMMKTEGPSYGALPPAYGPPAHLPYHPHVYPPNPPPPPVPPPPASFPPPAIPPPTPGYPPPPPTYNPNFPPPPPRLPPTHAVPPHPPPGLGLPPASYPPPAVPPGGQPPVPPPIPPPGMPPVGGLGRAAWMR
Method in brief: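 DC50 is the degrader concentration that halves nuclear CDK12 immunofluorescence relative to controls, measured by high-content imaging. CAL-120 cells were exposed to compound for 24 h at 37 °C before PFA fixation, and signal was normalized to DMSO and control wells.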

Sequence of CDK12/CycK (Q9NYV4 with tags, fused parts or gaps): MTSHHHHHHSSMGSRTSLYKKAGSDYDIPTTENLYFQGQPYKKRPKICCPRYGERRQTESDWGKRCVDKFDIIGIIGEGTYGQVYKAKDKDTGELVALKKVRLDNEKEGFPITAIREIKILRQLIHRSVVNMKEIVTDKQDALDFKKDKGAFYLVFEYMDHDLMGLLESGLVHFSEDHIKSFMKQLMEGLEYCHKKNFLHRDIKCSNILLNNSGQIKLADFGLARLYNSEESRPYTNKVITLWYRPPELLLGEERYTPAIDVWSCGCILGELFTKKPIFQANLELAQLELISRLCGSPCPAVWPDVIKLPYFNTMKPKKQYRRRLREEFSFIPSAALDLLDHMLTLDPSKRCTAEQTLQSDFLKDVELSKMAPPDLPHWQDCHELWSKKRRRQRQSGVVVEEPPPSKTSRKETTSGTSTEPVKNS
Sequence of CDK12/CycK (O75909 1-300 partner limits assumed): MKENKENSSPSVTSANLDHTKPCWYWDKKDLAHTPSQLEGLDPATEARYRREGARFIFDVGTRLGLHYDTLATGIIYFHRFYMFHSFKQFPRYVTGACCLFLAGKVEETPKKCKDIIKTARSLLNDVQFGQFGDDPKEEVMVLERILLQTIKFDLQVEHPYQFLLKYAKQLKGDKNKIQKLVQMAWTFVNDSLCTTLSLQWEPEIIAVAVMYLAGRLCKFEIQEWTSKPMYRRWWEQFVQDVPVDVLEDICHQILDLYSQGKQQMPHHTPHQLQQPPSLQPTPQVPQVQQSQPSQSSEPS

Row | SMILES | IC50 (CDK12/CycK) [nM] | DC50 [1] [nM] | (IC50 CDK12 high ATP) to (Degradation DC50 CDK12) ratio [1]
1 | Clc1cc2nc(CNc3nc(N4CCOCC4)nc4c(C5CC5)cnn34)[nH]c2cc1Cl [Example 301, 8-cyclopropyl-N-[(5,6-dichloro-1H-benzimidazol-2-yl)methyl]-2-(morpholin-4-yl)pyrazolo[1,5-a][1,3,5]triazin-4-amine] | 1180 | 4.37 | 270
2 | Brc1cnn2c(NCc3nc4ccccc4[nH]3)nc(N3CCC4(CCN4)CC3)nc12 [Example 291, N-[(1H-benzimidazol-2-yl)methyl]-8-bromo-2-(1,7-diazaspiro[3.5]nonan-7-yl)pyrazolo[1,5-a][1,3,5]triazin-4-amine] | 10700 | 19.2 | 554
3 | CN(CC(C)(C)O)c1nc(NCc2nc3cc(F)c(Cl)cc3[nH]2)n2ncc(C3CC3)c2n1 [Example 317, 1-[(4-{[(6-chloro-5-fluoro-1H-benzimidazol-2-yl)methyl]amino}-8-cyclopropylpyrazolo[1,5-a][1,3,5]triazin-2-yl)(methyl)amino]-2-methylpropan-2-ol] | 979 | 5.47 | 179
4 | FC(F)(F)c1cnn2c(NCc3nc4cc(Cl)ccc4[nH]3)nc(N3CCOCC3)nc12 [Example 275, N-[(5-chloro-1H-benzimidazol-2-yl)methyl]-2-(morpholin-4-yl)-8-(trifluoromethyl)pyrazolo[1,5-a][1,3,5]triazin-4-amine] | 97.3 | 1.7 | 57
5 | Fc1cc2nc(CNc3nc(N4CCOCC4)nc4c(C5CC5)cnn34)[nH]c2cc1F [Example 318, 8-cyclopropyl-N-[(5,6-difluoro-1H-benzimidazol-2-yl)methyl]-2-(morpholin-4-yl)pyrazolo[1,5-a][1,3,5]triazin-4-amine] | 1360 | 3.51 | 387
6 | CN1CCN(c2nc(NCc3nc4c(F)cccc4[nH]3)n3ncc(C(F)(F)F)c3n2)CC1 [Example 293, N-[(4-fluoro-1H-benzimidazol-2-yl)methyl]-2-(4-methylpiperazin-1-yl)-8-(trifluoromethyl)pyrazolo[1,5-a][1,3,5]triazin-4-amine] | 5910 | 1.71 | 3446
7 | Brc1cnn2c(NCc3nc4ccccc4[nH]3)nc(NCC3CC3)nc12 [Example 284, N^4-[(1H-benzimidazol-2-yl)methyl]-8-bromo-N^2-(cyclopropylmethyl)pyrazolo[1,5-a][1,3,5]triazine-2,4-diamine] | 5460 | 48.5 | 113
8 | Fc1ccc2[nH]c(CNc3nc(N4CCOCC4)nc4c(C5CC5(F)F)cnn34)nc2c1 (single isomer, unassigned) [Example 314, 8-[(1R or S)-2,2-difluorocyclopropyl]-N-[(5-fluoro-1H-benzimidazol-2-yl)methyl]-2-(morpholin-4-yl)pyrazolo[1,5-a][1,3,5]triazin-4-amine] | 9920 | 8.47 | 1171
9 | Fc1ccc2[nH]c(CNc3nc(N4C[C@H]5CC[C@@H](C4)N5)nc4c(C5CC5)cnn34)nc2c1F [Example 294, 8-cyclopropyl-2-[(1R,5S)-3,8-diazabicyclo[3.2.1]octan-3-yl]-N-[(4,5-difluoro-1H-benzimidazol-2-yl)methyl]pyrazolo[1,5-a][1,3,5]triazin-4-amine] | 1860 | 2.73 | 684
10 | CN(CC(C)(C)O)c1nc(NCc2nc3c(F)c(F)ccc3[nH]2)n2ncc(C3CC3)c2n1 [Example 292, 1-[(8-cyclopropyl-4-{[(4,5-difluoro-1H-benzimidazol-2-yl)methyl]amino}pyrazolo[1,5-a][1,3,5]triazin-2-yl)(methyl)amino]-2-methylpropan-2-ol] | 666 | 0.878 | 758
11 | N[C@H]1CCN(c2nc(NCc3nc4ccccc4[nH]3)n3ncc(Br)c3n2)C1 [Example 245, 2-[(3S)-3-aminopyrrolidin-1-yl]-N-[(1H-benzimidazol-2-yl)methyl]-8-bromopyrazolo[1,5-a][1,3,5]triazin-4-amine] | > 15800 | 1.49 | >10636
12 | CN1CCN(c2nc(NCc3nc4cc(F)c(F)cc4[nH]3)n3ncc(C4CC4)c3n2)CC1 [Example 311, 8-cyclopropyl-N-[(5,6-difluoro-1H-benzimidazol-2-yl)methyl]-2-(4-methylpiperazin-1-yl)pyrazolo[1,5-a][1,3,5]triazin-4-amine] | > 20000 | 6.15 | >3251
13 | CN(CC(C)(C)O)c1nc(NCc2nc3cc(Cl)c(Cl)cc3[nH]2)n2ncc(C3CC3)c2n1 [Example 306, 1-[(8-cyclopropyl-4-{[(5,6-dichloro-1H-benzimidazol-2-yl)methyl]amino}pyrazolo[1,5-a][1,3,5]triazin-2-yl)(methyl)amino]-2-methylpropan-2-ol] | 1850 | 12.7 | 146
14 | Brc1cnn2c(NCc3nc4ccccc4[nH]3)nc(N3C[C@H]4C[C@@H]3CN4)nc12 [Example 269, N-[(1H-benzimidazol-2-yl)methyl]-8-bromo-2-[(1R,4R)-2,5-diazabicyclo[2.2.1]heptan-2-yl]pyrazolo[1,5-a][1,3,5]triazin-4-amine] | 8610 | 3.33 | 2588
15 | c1ccc2[nH]c(CNc3nc(N4CCOCC4)nc4c(C5CCCC5)cnn34)nc2c1 [Example 244, N-[(1H-benzimidazol-2-yl)methyl]-8-cyclopentyl-2-(morpholin-4-yl)pyrazolo[1,5-a][1,3,5]triazin-4-amine] | > 20000 | 101 | –
16 | Fc1ccc2[nH]c(CNc3nc(N4CCOCC4)nc4c(C5CCCC5)cnn34)nc2c1F [Example 262, 8-cyclopentyl-N-[(4,5-difluoro-1H-benzimidazol-2-yl)methyl]-2-(morpholin-4-yl)pyrazolo[1,5-a][1,3,5]triazin-4-amine] | > 5710 | 11.4 | >500
17 | c1ccc2[nH]c(CNc3nc(N4C[C@@H]5C[C@H]4CO5)nc4c(C5CC5)cnn34)nc2c1 [Example 254, N-[(1H-benzimidazol-2-yl)methyl]-8-cyclopropyl-2-[(1S,4S)-2-oxa-5-azabicyclo[2.2.1]heptan-5-yl]pyrazolo[1,5-a][1,3,5]triazin-4-amine] | > 20000 | 8.47 | >2361
18 | Brc1cnn2c(NCc3nc4cccnc4[nH]3)nc(N3CCNCC3)nc12.O=CO [Example 19, 8-bromo-N-[(3H-imidazo[4,5-b]pyridin-2-yl)methyl]-2-(piperazin-1-yl)pyrazolo[1,5-a][1,3,5]triazin-4-amine formic acid salt] | 11500 | 10.9 | 1056
19 | COc1ccc2[nH]c(CNc3nc(N4CCOCC4)nc4c(C(F)(F)F)cnn34)nc2c1 [Example 257, N-[(5-methoxy-1H-benzimidazol-2-yl)methyl]-2-(morpholin-4-yl)-8-(trifluoromethyl)pyrazolo[1,5-a][1,3,5]triazin-4-amine] | 117 | 3 | 39
